System: bacteria in 35 wt % corn slurry solution
Experiment: Bacterial growth control in corn slurry, bacteria count and reduction (Example 2, Table 1 and FIG. 5)
Format: cell-based
Experimental: The effect of combined amounts of hydrogen peroxide and monochloramine at other tested addition amounts on bacterial growth control and their addition timing was further studied using laboratory experiments. For this additional study, laboratory experiments were performed using hydrogen peroxide at dosages of 100 ppm and 200 ppm, and monochloramine (“Oxamine”) at dosages of 25 ppm, 50 ppm, 75 ppm, and 100 ppm. The time between peroxide and monochloramine addition was up to 10 minutes (i.e., 0-10 minutes). All experiments were carried out with 35 wt % corn slurry solution.

Row | SMILES | % Reduction (100 ppm H2O2 alone) [%] | Bacteria Count (100 ppm H2O2 alone) | % Reduction (200 ppm H2O2 alone) [%] | Bacteria Count (200 ppm H2O2 alone) | % Reduction (25 ppm Oxamine alone) [%] | Bacteria Count (25 ppm Oxamine alone) | % Reduction (50 ppm Oxamine alone) [%] | Bacteria Count (50 ppm Oxamine alone) | % Reduction (75 ppm Oxamine alone) [%] | Bacteria Count (75 ppm Oxamine alone) | % Reduction (100 ppm Oxamine alone) [%] | Bacteria Count (100 ppm Oxamine alone)
1 | OO [H2O2, hydrogen peroxide] | 0.00 | 5.E+06 | 18.37 | 4.E+06 |  |  |  |  |  |  |  | 
2 | NCl [Oxamine, monochloramine] |  |  |  |  | 98.99 | 5.E+04 | 99.93 | 4.E+03 | 99.97 | 1.E+03 | 99.98 | 9.E+02

Reference: patent US20190239511A1, “Synergistic Combinations Of Monochloramine And Peroxide Compound, And Methods Of Using The Same For Microbial Control” (Buckman Laboratories International, Inc., priority 2018, published 2019)
